Measurements reported in patent US12643102B2, “Method of profiling a sample comprising a plurality of cells and a system for performing the same” (Massachusetts Institute of Technology, priority 2020, dated 2026).

Test system: WBCs from whole blood
Assay: DLD assay: WBC biophysical profiling (size Dapp, deformability CDMdot) after in vitro activation of whole blood
Assay type: cell-based
Details: for WBC Dapp (average of L and L^-1 DLD assays): 2 hours incubation, undiluted whole blood at 37° C., 2.5 μL/min, n=5, healthy baseline 9.7±0.1 μm; for increase in WBC Dapp: 2 hours, versus healthy baseline
Description: The open reservoirs 102A, 102B and 102C facilitate easy sample loading, sample resuspension to prevent settling of cells and washing the reservoir to reuse the device. The required loaded volume per run is 10 μL and the reservoir can hold up to 25 μL of blood. As the fluid is withdrawn, the sample flows through a region comprising 21 DLD device segments sandwiched between two 1× phosphate-buffered saline (PBS) buffer streams (see Table 2). Each segment comprises an array of pillars and has a specific DLD critical cut-off size (Dc) determined by the empirical Equation (1): […]
where G is the regular spacing between pillars and θ is the gradient of the pillar array. This design is known as a chirped DLD array where each downstream segment has an increasing pillar row-shift gradient corresponding to an increasing Dc ranging from 6.0 to 16.0 μm in steps of 0.5 μm (see Methods). Immune cells flowing through the device 100 are deflected laterally only within DLD segments where cell sizes are larger than Dc; the cells therefore exit the device 100 at defined lateral positions depicted in the output region shown in FIG. 1A. The output of the sorting forms a spectrum in its size distribution (i.e., a biophysical parameter based on a distribution profile of the cells sorted by the array of pillars).
To evaluate the biophysical combinatorial immune profiling potential of DLD assay, a single biophysical size and deformability parameter is determined. For size parameters, the average Dapp for L and L^−1 assays was quantified at 2.5 μL/min, while a single cell deformability parameter (CDMdot) was emphasized by taking the product of the CDML and CDML^−1 measurements. Performing a product amplifies the deformability differences compared to CDML and CDML^−1 measurements individually (see FIG. 8). By combining the measurements of two DLD devices, a unique leukocyte biophysical fingerprint as a profiling tool to measure different states of WBC from whole blood in real-time was envisioned (see FIG. 1B).
Direct sample measurements enable the study of WBC biophysical profiles in different health states of an individual for healthy donors, patients admitted to the ED without signs of infection (ED Control), and patients with clear signs of infection and fulfilling at least two SIRS criteria (ED≥2 SIRS) (See Table 3). The second group are tests performed on blood, which have undergone external or in vitro test conditions to activate the WBCs. These include 5 ng/ml lipopolysaccharide (LPS), which mimics the bacteria coat that would trigger inflammation and phorbol 12-myristate 13-acetate (PMA) at 100 and 1000 nM, a known activator of WBCs. […]

CCCCCCCCCCCCCC(=O)O[C@@H]1[C@@H](C)[C@@]2(O)[C@@H](C=C(CO)C[C@]3(O)C(=O)C(C)=C[C@@H]23)[C@@H]2C(C)(C)[C@]12OC(C)=O [PMA, phorbol 12-myristate 13-acetate]
WBC Dapp (average of L and L^-1 DLD assays) (PMA 100 nM): 12.6±0.8 μm | increase in WBC Dapp (PMA 100 nM): 30% | WBC Dapp (average of L and L^-1 DLD assays) (PMA 1000 nM): 13.9±0.7 μm | increase in WBC Dapp (PMA 1000 nM): 43%
